Activity calls are given as the source filed them. The calls are words filed in the database; no cut-off is given here.

Experimental findings from ChEMBL document CHEMBL5550160, “Leveraging a rationally designed veliparib-based anilide eliciting anti-leukemic effects for the design of pH-responsive polymer nanoformulation” (Eur J Med Chem, 2024) are described below.

The subject of assay [1] is HL-60. The assay can be described thus: Induction of cell cycle arrest in G0/G1 phase in human HL-60 cells assessed as downregulation of cyclin D1 protein expression at 0.5 to 1 times IC50 by Western blot analysis. It counts as functional, cell-based. In general terms: Immunoblotting shows a protein as a band on a membrane.
Assay [2] concerns the target Histone deacetylase 9 (Homo sapiens) (UniProt Q9UKV0). The assay can be described thus: Inhibition of HDAC9 (unknown origin) assessed as residual activity at 4.12 x 10^-8M (reference value: 97.55%). The following applies: dose 4.12 10^-8M.
The next assay relates to K562. In words: cells. The following applies: Homo sapiens.
The target of a further assay is Histone deacetylase 1 (Homo sapiens, UniProt Q13547). In words: Inhibition of HDAC1 (unknown origin) using p53 residues 379 to 382 [RHKK(Ac)] as fluorogenic substrate assessed as residual activity at 1.23 x 10^-7M (reference value: 98.06%). The following applies: dose 1.23 10^-7M.
Sequence of Histone deacetylase 1 (Q13547 whole entry, the tested form may be a part): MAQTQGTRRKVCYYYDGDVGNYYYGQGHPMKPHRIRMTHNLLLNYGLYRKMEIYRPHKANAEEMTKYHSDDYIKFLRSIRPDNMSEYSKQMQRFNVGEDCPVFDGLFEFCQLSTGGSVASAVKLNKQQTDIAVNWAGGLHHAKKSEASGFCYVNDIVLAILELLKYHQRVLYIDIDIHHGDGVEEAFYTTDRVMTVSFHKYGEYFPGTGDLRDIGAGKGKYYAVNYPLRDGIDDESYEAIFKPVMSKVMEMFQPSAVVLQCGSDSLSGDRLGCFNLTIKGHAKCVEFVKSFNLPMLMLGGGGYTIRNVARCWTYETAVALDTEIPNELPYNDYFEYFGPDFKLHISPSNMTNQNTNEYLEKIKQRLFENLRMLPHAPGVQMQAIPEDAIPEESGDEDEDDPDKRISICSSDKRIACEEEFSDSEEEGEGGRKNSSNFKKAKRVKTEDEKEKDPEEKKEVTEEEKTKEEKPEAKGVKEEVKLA
For assay [3], the target named is Histone deacetylase 5 (Homo sapiens) (UniProt Q9UQL6). In words: Inhibition of HDAC5 (unknown origin) assessed as residual activity at 1.23 x 10^-7M (reference value: 100%). The following applies: dose 1.23 10^-7M.
Sequence of Histone deacetylase 5 (Homo sapiens) (Q9UQL6 whole entry): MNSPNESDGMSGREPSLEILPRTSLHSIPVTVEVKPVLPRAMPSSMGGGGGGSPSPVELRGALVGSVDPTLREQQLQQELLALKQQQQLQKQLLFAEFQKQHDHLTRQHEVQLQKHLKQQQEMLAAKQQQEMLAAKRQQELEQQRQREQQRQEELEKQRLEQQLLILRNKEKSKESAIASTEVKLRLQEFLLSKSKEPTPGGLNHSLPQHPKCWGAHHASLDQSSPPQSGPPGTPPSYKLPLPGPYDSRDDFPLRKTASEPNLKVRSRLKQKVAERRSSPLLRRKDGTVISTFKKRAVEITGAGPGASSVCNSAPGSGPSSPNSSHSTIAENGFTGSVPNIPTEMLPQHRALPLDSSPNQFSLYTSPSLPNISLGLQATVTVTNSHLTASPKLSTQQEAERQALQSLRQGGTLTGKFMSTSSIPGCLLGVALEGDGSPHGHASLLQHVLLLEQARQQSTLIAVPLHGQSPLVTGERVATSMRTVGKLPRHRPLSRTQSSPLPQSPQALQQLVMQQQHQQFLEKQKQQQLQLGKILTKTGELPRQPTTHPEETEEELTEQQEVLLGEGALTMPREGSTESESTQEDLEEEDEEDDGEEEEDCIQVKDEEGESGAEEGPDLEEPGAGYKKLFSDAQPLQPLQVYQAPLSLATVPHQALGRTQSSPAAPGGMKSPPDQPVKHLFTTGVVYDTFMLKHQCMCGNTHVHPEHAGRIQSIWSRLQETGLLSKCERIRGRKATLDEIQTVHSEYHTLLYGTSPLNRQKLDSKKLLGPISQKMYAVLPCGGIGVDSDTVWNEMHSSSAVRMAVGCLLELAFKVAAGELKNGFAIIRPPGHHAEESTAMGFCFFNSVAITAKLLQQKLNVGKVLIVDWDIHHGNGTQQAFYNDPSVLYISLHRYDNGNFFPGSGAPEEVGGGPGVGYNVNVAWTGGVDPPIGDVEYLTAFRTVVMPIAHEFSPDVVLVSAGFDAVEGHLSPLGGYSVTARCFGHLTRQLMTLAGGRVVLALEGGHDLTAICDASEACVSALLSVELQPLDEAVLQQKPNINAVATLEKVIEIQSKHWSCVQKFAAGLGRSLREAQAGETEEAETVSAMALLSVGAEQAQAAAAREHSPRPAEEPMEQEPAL
The subject of assay [4] is HL-60. The assay can be described thus: Downregulation of PARP-2 protein expression in human HL-60 cells by Western blot analysis. It counts as functional, cell-based.
Assay [5] concerns the target T1, Histone deacetylase 7 (Homo sapiens) (UniProt Q8WUI4).
T1 sequence (whole entry): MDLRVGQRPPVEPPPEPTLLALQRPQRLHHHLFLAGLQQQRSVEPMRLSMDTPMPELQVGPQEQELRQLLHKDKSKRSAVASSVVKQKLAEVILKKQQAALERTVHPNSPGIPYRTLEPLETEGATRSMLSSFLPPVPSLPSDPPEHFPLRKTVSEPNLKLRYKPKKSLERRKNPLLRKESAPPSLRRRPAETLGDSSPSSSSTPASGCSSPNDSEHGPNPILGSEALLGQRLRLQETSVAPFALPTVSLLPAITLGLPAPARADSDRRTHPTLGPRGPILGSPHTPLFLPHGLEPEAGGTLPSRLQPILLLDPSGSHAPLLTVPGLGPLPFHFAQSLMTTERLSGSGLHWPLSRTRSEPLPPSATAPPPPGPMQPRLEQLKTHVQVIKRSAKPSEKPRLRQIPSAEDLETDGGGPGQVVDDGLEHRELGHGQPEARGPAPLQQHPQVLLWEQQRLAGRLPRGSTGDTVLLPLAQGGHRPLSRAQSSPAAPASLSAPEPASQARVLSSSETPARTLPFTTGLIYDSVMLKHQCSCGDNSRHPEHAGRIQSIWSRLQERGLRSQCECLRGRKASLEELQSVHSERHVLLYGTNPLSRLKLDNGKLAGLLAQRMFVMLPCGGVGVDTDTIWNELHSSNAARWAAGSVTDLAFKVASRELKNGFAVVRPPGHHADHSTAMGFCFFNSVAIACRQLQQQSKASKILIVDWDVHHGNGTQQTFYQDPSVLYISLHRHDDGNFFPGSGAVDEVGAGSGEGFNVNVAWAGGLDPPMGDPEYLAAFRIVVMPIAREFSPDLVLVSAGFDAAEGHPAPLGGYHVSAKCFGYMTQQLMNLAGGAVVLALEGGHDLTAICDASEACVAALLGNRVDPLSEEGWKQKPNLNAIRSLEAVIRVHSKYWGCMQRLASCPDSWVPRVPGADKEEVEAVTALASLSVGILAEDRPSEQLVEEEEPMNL
In words: Inhibition of HDAC7 (unknown origin) assessed as residual activity at 3.33 x 10^-6M (reference value: 102.66%). As to conditions: dose 3.33 10^-6M.

A further assay deals with Histone deacetylase 3 (Homo sapiens, UniProt O15379). The assay can be described thus: Inhibition of HDAC3 (unknown origin) using p53 residues 379 to 382 [RHKK(Ac)] as fluorogenic substrate assessed as residual activity at 4.57 x 10^-9M (reference value: 103.08%). As to conditions: dose 4.57 10^-9M.
Sequence of Histone deacetylase 3 (O15379 whole entry, the tested form may be a part): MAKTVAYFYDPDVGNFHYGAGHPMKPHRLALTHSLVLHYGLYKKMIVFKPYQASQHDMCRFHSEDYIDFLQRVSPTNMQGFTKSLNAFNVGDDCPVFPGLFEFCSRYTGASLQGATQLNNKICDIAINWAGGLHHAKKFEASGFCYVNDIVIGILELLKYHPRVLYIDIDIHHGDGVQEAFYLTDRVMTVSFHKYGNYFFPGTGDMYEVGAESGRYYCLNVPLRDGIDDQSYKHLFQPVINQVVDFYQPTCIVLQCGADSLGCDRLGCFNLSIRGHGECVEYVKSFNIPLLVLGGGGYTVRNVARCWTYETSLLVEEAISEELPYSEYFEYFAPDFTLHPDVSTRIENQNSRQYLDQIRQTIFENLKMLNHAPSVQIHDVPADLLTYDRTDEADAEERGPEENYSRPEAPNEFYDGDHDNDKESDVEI
The subject of assay [6] is HL-60. In words: Induction of apoptosis in human HL-60 cells assessed as chromatin condensation at 0.5 to 1 times IC50 by DAPI staining based microscopic analysis. The format is functional, cell-based.
A further assay has as its target Histone deacetylase 2 (Homo sapiens, UniProt Q92769). The assay can be described thus: Inhibition of HDAC2 (unknown origin) assessed as residual activity at 1.37 x 10^-8M (reference value: 99.81%). The following applies: dose 1.37 10^-8M.
Assay [7] deals with Histone deacetylase 5 (Homo sapiens) (UniProt Q9UQL6). The assay can be described thus: Inhibition of HDAC5 (unknown origin) assessed as residual activity at 3.33 x 10^-6M (reference value: 100%). As to conditions: dose 3.33 10^-6M.
Assay [8] deals with T2, Polyamine deacetylase HDAC10 (Homo sapiens) (UniProt Q969S8).
T2 sequence (whole entry): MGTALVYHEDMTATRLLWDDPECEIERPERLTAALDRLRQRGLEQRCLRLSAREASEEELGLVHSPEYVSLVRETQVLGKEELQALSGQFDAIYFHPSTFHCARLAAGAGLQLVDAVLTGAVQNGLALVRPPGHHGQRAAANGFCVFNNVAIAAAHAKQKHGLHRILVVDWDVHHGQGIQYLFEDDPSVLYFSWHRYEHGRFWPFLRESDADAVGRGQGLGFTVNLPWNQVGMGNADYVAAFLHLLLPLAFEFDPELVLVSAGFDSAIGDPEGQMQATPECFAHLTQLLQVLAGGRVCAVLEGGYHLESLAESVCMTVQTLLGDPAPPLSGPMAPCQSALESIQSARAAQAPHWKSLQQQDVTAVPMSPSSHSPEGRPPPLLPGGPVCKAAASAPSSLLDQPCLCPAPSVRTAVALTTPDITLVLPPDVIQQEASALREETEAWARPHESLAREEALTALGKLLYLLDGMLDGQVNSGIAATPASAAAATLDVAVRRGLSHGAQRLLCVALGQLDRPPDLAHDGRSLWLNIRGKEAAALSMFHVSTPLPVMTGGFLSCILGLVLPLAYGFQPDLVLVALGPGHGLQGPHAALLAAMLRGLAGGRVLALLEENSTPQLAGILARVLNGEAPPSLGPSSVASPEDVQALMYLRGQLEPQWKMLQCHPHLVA
The assay can be described thus: Inhibition of HDAC10 (unknown origin) assessed as residual activity at 5.08 x 10^-10M (reference value: 101.54%). As to conditions: dose 5.08 10^-10M.

In a further assay the test system is A549. In words: cells. The format is functional, cell-based. The following applies: Homo sapiens.
The target of assay [9] is T1, Histone deacetylase 7 (Homo sapiens). The assay can be described thus: Inhibition of HDAC7 (unknown origin) assessed as residual activity at 1 x 10^-5M (reference value: 102.66%).

Sequence of Histone deacetylase 2 (Q92769 whole entry): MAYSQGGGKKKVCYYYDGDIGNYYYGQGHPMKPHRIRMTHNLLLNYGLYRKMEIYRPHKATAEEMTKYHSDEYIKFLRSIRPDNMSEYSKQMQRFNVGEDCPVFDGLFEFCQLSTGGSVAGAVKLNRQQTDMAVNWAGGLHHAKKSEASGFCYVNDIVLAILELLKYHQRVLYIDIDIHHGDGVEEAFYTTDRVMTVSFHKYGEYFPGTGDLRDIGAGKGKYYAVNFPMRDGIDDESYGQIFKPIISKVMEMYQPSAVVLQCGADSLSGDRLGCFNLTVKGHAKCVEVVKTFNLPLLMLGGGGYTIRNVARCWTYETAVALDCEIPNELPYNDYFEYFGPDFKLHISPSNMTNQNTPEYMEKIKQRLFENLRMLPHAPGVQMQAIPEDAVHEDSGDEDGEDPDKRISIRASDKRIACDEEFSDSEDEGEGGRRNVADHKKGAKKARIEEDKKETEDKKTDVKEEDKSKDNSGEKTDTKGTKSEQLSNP
Sequence of Histone deacetylase 9 (Homo sapiens) (Q9UKV0 whole entry): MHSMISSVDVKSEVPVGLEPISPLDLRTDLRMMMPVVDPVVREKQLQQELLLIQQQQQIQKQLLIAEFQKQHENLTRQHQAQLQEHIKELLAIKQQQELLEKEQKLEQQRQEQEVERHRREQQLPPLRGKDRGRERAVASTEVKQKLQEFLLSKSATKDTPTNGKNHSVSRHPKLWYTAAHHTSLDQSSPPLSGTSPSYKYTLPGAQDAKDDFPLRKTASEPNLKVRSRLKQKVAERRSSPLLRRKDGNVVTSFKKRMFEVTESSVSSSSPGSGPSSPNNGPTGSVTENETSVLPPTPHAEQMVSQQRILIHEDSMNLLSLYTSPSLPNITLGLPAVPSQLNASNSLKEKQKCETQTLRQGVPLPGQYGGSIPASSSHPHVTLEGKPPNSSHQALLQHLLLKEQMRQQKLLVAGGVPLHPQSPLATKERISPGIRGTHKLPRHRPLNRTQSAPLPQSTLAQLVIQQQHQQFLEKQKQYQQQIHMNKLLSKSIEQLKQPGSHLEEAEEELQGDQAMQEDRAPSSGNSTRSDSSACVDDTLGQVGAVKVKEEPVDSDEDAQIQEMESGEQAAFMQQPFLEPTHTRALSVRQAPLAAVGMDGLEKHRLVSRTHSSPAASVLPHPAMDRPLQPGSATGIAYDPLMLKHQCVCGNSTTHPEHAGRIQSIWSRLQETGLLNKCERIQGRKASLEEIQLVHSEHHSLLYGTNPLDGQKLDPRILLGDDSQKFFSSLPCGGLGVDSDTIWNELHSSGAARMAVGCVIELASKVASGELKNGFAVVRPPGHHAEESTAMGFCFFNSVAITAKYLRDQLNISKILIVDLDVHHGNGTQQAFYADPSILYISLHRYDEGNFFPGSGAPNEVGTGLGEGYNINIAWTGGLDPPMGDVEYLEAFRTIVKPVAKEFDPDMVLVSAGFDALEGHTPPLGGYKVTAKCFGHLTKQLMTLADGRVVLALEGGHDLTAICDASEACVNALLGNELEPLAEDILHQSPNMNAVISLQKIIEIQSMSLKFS
Description for A549: Antiproliferative activity against human A549 cells assessed as inhibition of cell growth by MTT assay
Description for K562: Antiproliferative activity against human K562 cells assessed as inhibition of cell growth by MTT assay

As for `NC(=O)c1cccc2[nH]c(-c3ccc(NCc4ccc(C(=O)Nc5ccccc5N)cc4)cc3)nc12`, the result with HL-60 [1] and in the assay with HL-60 [4] was Active. In addition, the Activity in assay [2] turned out to be 102%; at Histone deacetylase 1, 31.3%; in [3], 89.6%; in assay [5] it was 95.6%; on Histone deacetylase 3, 111%; on Histone deacetylase 2 it was 86.2%. In addition, the Activity in assay [7] turned out to be 85.7%; in assay [8], 101%; in assay [9], 92%. Moreover, the IC50 in the assay on K562 was 1210 nM; in the assay on A549, more than 5000 nM. The result in the assay on HL-60 [6] was inactive.

What is called IC50 is the concentration needed to halve the response being measured. A higher IC50 goes with weaker potency in that assay.
